The values below come from PubChem BioAssay (NCI).

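The compound was tested at five concentrations on cells cultured in 96-well plates, with a 48-hour exposure period. The concentration for full growth arrest is given as TGI.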

Test systems include OVCAR-8 ovarian; HL-60(TB) leukemia; HS 578T breast; SK-MEL-5 melanoma; A498 renal; EKVX NSCLC; IGROV1 ovarian; SF-539 CNS; ACHN renal; UO-31 renal; SF-268 CNS; MALME-3M melanoma; HCC-2998 colon; TK-10 renal; KM12 colon; CCRF-CEM leukemia; MOLT-4 leukemia; MDA-MB-231 breast; COLO 205 colon.
Experiment in all cases: growth of human tumour cells (NCI), 48 h

`O=C(n1c(=O)n(-c2ccc(Cl)cc2)c(=O)n1C(=O)C(Cl)(Cl)Cl)C(Cl)(Cl)Cl`: the TGI in the assay on OVCAR-8 ovarian, in the assay on HL-60(TB) leukemia, in the assay on HS 578T breast, in the assay on SK-MEL-5 melanoma, in the assay on A498 renal and in the assay on EKVX NSCLC was > 100 µM each time. Further, the TGI in the assay on IGROV1 ovarian, in the assay on SF-539 CNS, in the assay with ACHN renal, in the assay with UO-31 renal, in the assay on SF-268 CNS and with MALME-3M melanoma was > 100 µM in each case. The TGI in the assay with HCC-2998 colon, in the assay with TK-10 renal, in the assay with KM12 colon, with CCRF-CEM leukemia, in the assay with MOLT-4 leukemia and with MDA-MB-231 breast was > 100 µM in each case. Besides, the TGI in the assay on COLO 205 colon was > 100 µM.

For the compound `Cc1ccc(CCCCCOc2ccc(C3=NCCO3)cc2)s1`, the TGI with OVCAR-8 ovarian is > 100 µM; in the assay with HL-60(TB) leukemia it was > 100 µM; with HS 578T breast, > 100 µM; in the assay on SK-MEL-5 melanoma, > 100 µM; in the assay on A498 renal it was 4.47 µM; in the assay with EKVX NSCLC it was > 100 µM. The TGI in the assay on IGROV1 ovarian, in the assay on ACHN renal, with UO-31 renal, in the assay with SF-268 CNS, in the assay with MALME-3M melanoma and with HCC-2998 colon was > 100 µM in each case. Besides, the TGI with TK-10 renal, with KM12 colon, with CCRF-CEM leukemia, in the assay with MOLT-4 leukemia, in the assay with MDA-MB-231 breast and in the assay on COLO 205 colon was > 100 µM each time.

Take `CC(C)c1nc2c(Cl)c3ncccc3cc2[nH]c1=O`: the TGI in the assay with OVCAR-8 ovarian, with HL-60(TB) leukemia, in the assay with HS 578T breast, in the assay on SK-MEL-5 melanoma, in the assay on A498 renal and in the assay with EKVX NSCLC was > 100 µM each time. Besides, the TGI in the assay on IGROV1 ovarian, in the assay on SF-539 CNS, with ACHN renal, with UO-31 renal, in the assay with SF-268 CNS and in the assay with MALME-3M melanoma was > 100 µM throughout. For the same compound, the TGI in the assay with KM12 colon, in the assay with CCRF-CEM leukemia, in the assay on MOLT-4 leukemia, with MDA-MB-231 breast and in the assay on COLO 205 colon was > 100 µM each time.

As to `[O-]c1c[n+](CC[n+]2cc([O-])on2)no1`, the TGI with OVCAR-8 ovarian, in the assay with HL-60(TB) leukemia, in the assay with HS 578T breast, in the assay on SK-MEL-5 melanoma, in the assay with A498 renal and in the assay with EKVX NSCLC was > 100 µM throughout. The TGI in the assay with IGROV1 ovarian, in the assay with ACHN renal, in the assay on UO-31 renal, with SF-268 CNS, in the assay on MALME-3M melanoma and in the assay with HCC-2998 colon was > 100 µM throughout. Also, the TGI with TK-10 renal, in the assay on KM12 colon, with CCRF-CEM leukemia, in the assay with MOLT-4 leukemia, in the assay with MDA-MB-231 breast and with COLO 205 colon was > 100 µM throughout.

Regarding `O=C(NCCN1CCCC1)c1cn2c(ccc3sc4ccccc4c(=O)c32)n1`, the TGI with OVCAR-8 ovarian turned out to be 9.82 µM; in the assay with HL-60(TB) leukemia it was 26.8 µM; with HS 578T breast, 33.3 µM; in the assay on SK-MEL-5 melanoma, 31.2 µM; with A498 renal, 33.1 µM; in the assay with EKVX NSCLC, 34.8 µM. The TGI in the assay on IGROV1 ovarian came out at 25 µM; with SF-539 CNS, 30.2 µM; in the assay with ACHN renal, 21.2 µM; in the assay with UO-31 renal, 26.4 µM; in the assay on SF-268 CNS, 30.1 µM; in the assay with MALME-3M melanoma, 31.8 µM. Besides, the TGI with HCC-2998 colon came out at 18.6 µM; in the assay with TK-10 renal it was 25.7 µM; in the assay with KM12 colon, 37.5 µM; in the assay on CCRF-CEM leukemia it was 4.53 µM; in the assay with MOLT-4 leukemia, 7.42 µM; in the assay with MDA-MB-231 breast, 7.52 µM. The compound further had a TGI in the assay with COLO 205 colon of 26.7 µM.

As for `COC(=O)c1c(O)ccc2c1c1c(n2-c2ccc(OC)cc2)C(=O)c2ccccc2C1=O`, the TGI in the assay on OVCAR-8 ovarian is 33.7 µM; with HL-60(TB) leukemia, > 100 µM; with HS 578T breast, 46.4 µM; in the assay with SK-MEL-5 melanoma it was > 100 µM; in the assay on A498 renal it was > 100 µM; with EKVX NSCLC it was 39.6 µM. Also, the TGI in the assay on IGROV1 ovarian amounted to 91.6 µM; in the assay on SF-539 CNS, 29.9 µM; in the assay with ACHN renal, 25.6 µM; in the assay with UO-31 renal, 31.1 µM; with SF-268 CNS, 32.4 µM; in the assay on MALME-3M melanoma, 58.4 µM. For the same compound, the TGI in the assay on HCC-2998 colon is 11.3 µM; in the assay on TK-10 renal, 39.5 µM; with KM12 colon it was 77.8 µM; in the assay on CCRF-CEM leukemia, > 100 µM; in the assay with MOLT-4 leukemia it was > 100 µM; in the assay on MDA-MB-231 breast it was 32.7 µM. In the assay with COLO 205 colon, this compound had a TGI of 3.52 µM.

For the compound `CO/N=C(/C(=O)OC)c1ccccc1COc1cccc(C(F)(F)F)c1`, the TGI in the assay on HL-60(TB) leukemia is 49 µM; in the assay with HS 578T breast, > 100 µM; in the assay on SK-MEL-5 melanoma, 17.9 µM; in the assay on A498 renal, > 100 µM; in the assay with EKVX NSCLC, 43.2 µM; in the assay on IGROV1 ovarian, > 100 µM. Also, the TGI in the assay with SF-539 CNS is > 100 µM; in the assay on ACHN renal, > 100 µM; in the assay on UO-31 renal, > 100 µM; in the assay with SF-268 CNS it was > 100 µM; with MALME-3M melanoma it was 46.1 µM; in the assay on TK-10 renal, 55.4 µM. Besides, the TGI with KM12 colon was 92 µM; in the assay on CCRF-CEM leukemia, 65.1 µM; with MOLT-4 leukemia it was 34.4 µM; in the assay on MDA-MB-231 breast it was > 100 µM; in the assay with COLO 205 colon, > 100 µM.
